# In ChEMBL document CHEMBL1201862, “PubChem BioAssay data set” (2004):
# Values joined by “and” are separate entries in the source; they are usually repeats but may differ in a detail not shown here. Equal entries are not always repeated.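 Dose response: 5 concentrations. Exposure: 48 h. Format: 96-well plates. Endpoint: linear interpolation; highest concentration if not reached. At the GI50, growth is halved.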 Active and inactive are the calls of the source. No stated cut-off is given here; in the data, active = GI50 up to about 1.1 µM and inactive = higher.
# Assays:
# Test in all cases: DTP human tumour cell line panel, 48 h
# A549 = system: A549
# ACHN = system: ACHN
# CAKI-1 = system: CAKI-1
# DU-145 = system: DU-145
# HCC 2998 = system: HCC 2998
# HCT-116 = system: HCT-116
# HCT-15 = system: HCT-15
# HL-60 = system: HL-60
# HT-29 = system: HT-29
# Hs-578T = system: Hs-578T
# K562 = system: K562
# KM12 = system: KM12
# LOX IMVI = system: LOX IMVI
# M14 = system: M14
# MCF7 = system: MCF7
# MDA-MB-231 = system: MDA-MB-231
# MDA-N = system: MDA-N
# MOLT-4 = system: MOLT-4
# Malme-3M = system: Malme-3M
# NCI-H226 = system: NCI-H226
# NCI-H460 = system: NCI-H460
# OVCAR-3 = system: OVCAR-3
# OVCAR-4 = system: OVCAR-4
# OVCAR-5 = system: OVCAR-5
# OVCAR-8 = system: OVCAR-8
# PC-3 = system: PC-3
# RPMI-8226 = system: RPMI-8226
# SF-539 = system: SF-539
# SK-MEL-28 = system: SK-MEL-28
# SK-MEL-5 = system: SK-MEL-5
# SN12C = system: SN12C
# SR = system: SR
# SW-620 = system: SW-620
# T47D = system: T47D
# UACC-257 = system: UACC-257
# UO-31 = system: UO-31
# 786-0 = system: 786-0
# CCRF-CEM = system: CCRF-CEM
# COLO 205 = system: COLO 205
# EKVX = system: EKVX
# HOP-62 = system: HOP-62
# IGROV-1 = system: IGROV-1
# NCI-H23 = system: NCI-H23
# RXF 393 = system: RXF 393
# SF-268 = system: SF-268
# SF-295 = system: SF-295
# SK-OV-3 = system: SK-OV-3
# SNB-75 = system: SNB-75
# TK-10 = system: TK-10
# UACC-62 = system: UACC-62
# HOP-92 = system: HOP-92
# MDA-MB-435 = system: MDA-MB-435
# NCI-H522 = system: NCI-H522
# NCI/ADR-RES = system: NCI/ADR-RES
# SK-MEL-2 = system: SK-MEL-2
# SNB-19 = system: SNB-19
# U-251 = system: U-251
smiles,measurement,setting,value
N#Cc1ccc(-c2ccc(Cl)cc2)n(C2OC(CO)C(O)C(O)C2O)c1=S (stereo not given),GI50,A549,> 100 µM (inactive)
same,GI50,ACHN,> 100 µM (inactive)
same,GI50,CAKI-1,> 100 µM (inactive)
same,GI50,DU-145,> 100 µM (inactive)
same,GI50,HCC 2998,> 100 µM (inactive)
same,GI50,HCT-116,> 100 µM (inactive) and 86.1 µM (inactive)
same,GI50,HCT-15,> 100 µM
same,GI50,HL-60,> 100 µM (inactive)
same,GI50,HT-29,> 100 µM (inactive)
same,GI50,Hs-578T,> 100 µM (inactive)
same,GI50,K562,> 100 µM (inactive)
same,GI50,KM12,> 100 µM (inactive)
same,GI50,LOX IMVI,> 100 µM (inactive)
same,GI50,M14,> 100 µM (inactive)
same,GI50,MCF7,62.4 µM (inactive)
same,GI50,MDA-MB-231,> 100 µM (inactive)
same,GI50,MDA-N,> 100 µM (inactive)
same,GI50,MOLT-4,> 100 µM (inactive)
same,GI50,Malme-3M,> 100 µM (inactive)
same,GI50,NCI-H226,> 100 µM (inactive)
same,GI50,NCI-H460,> 100 µM (inactive) and 86.5 µM (inactive)
same,GI50,OVCAR-3,> 100 µM (inactive)
same,GI50,OVCAR-4,> 100 µM (inactive)
same,GI50,OVCAR-5,> 100 µM (inactive)
same,GI50,OVCAR-8,> 100 µM (inactive)
same,GI50,PC-3,> 100 µM (inactive)
same,GI50,RPMI-8226,> 100 µM (inactive)
same,GI50,SF-539,> 100 µM (inactive)
same,GI50,SK-MEL-28,> 100 µM (inactive)
same,GI50,SK-MEL-5,> 100 µM (inactive) and 98.6 µM (inactive)
same,GI50,SN12C,> 100 µM (inactive)
same,GI50,SR,> 100 µM (inactive)
same,GI50,SW-620,> 100 µM (inactive)
same,GI50,T47D,> 100 µM (inactive)
same,GI50,UACC-257,> 100 µM (inactive)
same,GI50,UO-31,> 100 µM (inactive)
CCOc1ccc(-c2nc(-c3oc4ccccc4c(=O)c3OC(C)=O)cs2)cc1,GI50,786-0,> 10 µM (inactive)
same,GI50,A549,> 10 µM (inactive)
same,GI50,CAKI-1,> 10 µM (inactive)
same,GI50,CCRF-CEM,7.57 µM (inactive)
same,GI50,COLO 205,> 10 µM (inactive)
same,GI50,DU-145,> 10 µM (inactive)
same,GI50,EKVX,> 10 µM (inactive)
same,GI50,HCC 2998,> 10 µM (inactive)
same,GI50,HCT-15,7.13 µM
same,GI50,HL-60,> 10 µM (inactive)
same,GI50,HOP-62,> 10 µM (inactive)
same,GI50,HT-29,> 10 µM (inactive)
same,GI50,IGROV-1,> 10 µM (inactive)
same,GI50,K562,5.5 µM (inactive)
same,GI50,KM12,> 10 µM (inactive)
same,GI50,LOX IMVI,> 10 µM (inactive)
same,GI50,M14,> 10 µM (inactive)
same,GI50,MCF7,3.52 µM (inactive)
same,GI50,MDA-MB-231,> 10 µM (inactive)
same,GI50,MDA-N,6.18 µM (inactive)
same,GI50,MOLT-4,> 10 µM (inactive)
same,GI50,Malme-3M,> 10 µM (inactive)
same,GI50,NCI-H23,> 10 µM (inactive)
same,GI50,OVCAR-8,> 10 µM (inactive)
same,GI50,PC-3,> 10 µM (inactive)
same,GI50,RPMI-8226,> 10 µM (inactive)
same,GI50,RXF 393,2.62 µM (inactive)
same,GI50,SF-268,9.06 µM (inactive)
same,GI50,SF-295,> 10 µM (inactive)
same,GI50,SK-MEL-28,6.71 µM (inactive)
same,GI50,SK-MEL-5,> 10 µM (inactive)
same,GI50,SK-OV-3,> 10 µM (inactive)
same,GI50,SN12C,9.93 µM (inactive)
same,GI50,SNB-75,8.97 µM (inactive)
same,GI50,SR,> 10 µM (inactive)
same,GI50,SW-620,> 10 µM (inactive)
same,GI50,T47D,> 10 µM (inactive)
same,GI50,TK-10,> 10 µM (inactive)
same,GI50,UACC-257,> 10 µM (inactive)
same,GI50,UACC-62,> 10 µM (inactive)
NC(Cc1c2ccccc2cc2ccccc12)C(=O)O (stereo not given),GI50,786-0,> 100 µM (inactive)
same,GI50,A549,> 100 µM (inactive)
same,GI50,ACHN,83 µM (inactive)
same,GI50,CAKI-1,62.2 µM (inactive)
same,GI50,CCRF-CEM,94.8 µM (inactive)
same,GI50,COLO 205,38.4 µM (inactive)
same,GI50,DU-145,85.1 µM (inactive)
same,GI50,EKVX,> 100 µM (inactive)
same,GI50,HCC 2998,> 100 µM (inactive)
same,GI50,HCT-116,83.9 µM (inactive)
same,GI50,HCT-15,68.1 µM
same,GI50,HL-60,> 100 µM (inactive)
same,GI50,HOP-62,67.3 µM (inactive)
same,GI50,HOP-92,61.1 µM (inactive)
same,GI50,HT-29,> 100 µM (inactive)
same,GI50,IGROV-1,48.3 µM (inactive)
same,GI50,K562,> 100 µM (inactive)
same,GI50,KM12,> 100 µM (inactive)
same,GI50,LOX IMVI,> 100 µM (inactive)
same,GI50,M14,> 100 µM (inactive)
same,GI50,MCF7,> 100 µM (inactive)
same,GI50,MDA-MB-231,> 100 µM (inactive)
same,GI50,MDA-MB-435,> 100 µM (inactive)
same,GI50,MOLT-4,37 µM (inactive)
same,GI50,Malme-3M,80.7 µM (inactive)
same,GI50,NCI-H226,22.5 µM (inactive)
same,GI50,NCI-H23,> 100 µM (inactive)
same,GI50,NCI-H460,59.8 µM (inactive)
same,GI50,NCI-H522,> 100 µM (inactive)
same,GI50,NCI/ADR-RES,> 100 µM (inactive)
same,GI50,OVCAR-3,> 100 µM (inactive)
same,GI50,OVCAR-4,> 100 µM (inactive)
same,GI50,OVCAR-5,> 100 µM (inactive)
same,GI50,OVCAR-8,8.09 µM (inactive)
same,GI50,PC-3,> 100 µM (inactive)
same,GI50,RXF 393,> 100 µM (inactive)
same,GI50,SF-268,> 100 µM (inactive)
same,GI50,SF-295,> 100 µM (inactive)
same,GI50,SF-539,> 100 µM (inactive)
same,GI50,SK-MEL-28,> 100 µM (inactive)
same,GI50,SK-MEL-2,> 100 µM (inactive)
same,GI50,SK-MEL-5,47.4 µM (inactive)
same,GI50,SK-OV-3,> 100 µM (inactive)
same,GI50,SN12C,54.3 µM (inactive)
same,GI50,SNB-19,> 100 µM (inactive)
same,GI50,SNB-75,14 µM (inactive)
same,GI50,SR,68.9 µM (inactive)
same,GI50,SW-620,70.5 µM (inactive)
same,GI50,T47D,> 100 µM (inactive)
same,GI50,TK-10,> 100 µM (inactive)
same,GI50,U-251,> 100 µM (inactive)
same,GI50,UACC-257,> 100 µM (inactive)
same,GI50,UACC-62,76.9 µM (inactive)
same,GI50,UO-31,78.7 µM (inactive)
